Experimental data as given in ChEMBL document CHEMBL5291721, “A preclinical secondary pharmacology resource illuminates target-adverse drug reaction associations of marketed drugs” (Nat Commun, 2023).

Key:
[1] = molecular target: T1, Alpha-2C adrenergic receptor (Homo sapiens, UniProt P18825); type: functional
T1 sequence (P18825 whole entry): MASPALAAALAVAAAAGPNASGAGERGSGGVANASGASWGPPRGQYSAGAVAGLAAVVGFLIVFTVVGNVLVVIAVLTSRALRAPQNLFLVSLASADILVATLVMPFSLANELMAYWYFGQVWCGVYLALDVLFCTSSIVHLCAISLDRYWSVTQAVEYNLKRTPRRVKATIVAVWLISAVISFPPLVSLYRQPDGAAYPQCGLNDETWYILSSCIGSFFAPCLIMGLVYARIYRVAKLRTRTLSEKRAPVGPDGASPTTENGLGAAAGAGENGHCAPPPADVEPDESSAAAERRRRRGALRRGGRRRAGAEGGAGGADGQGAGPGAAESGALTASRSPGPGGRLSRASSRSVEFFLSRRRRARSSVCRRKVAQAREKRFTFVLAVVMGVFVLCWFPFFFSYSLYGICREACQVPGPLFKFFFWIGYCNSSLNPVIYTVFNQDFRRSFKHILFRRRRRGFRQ

[2] = molecular target: T2, Cholecystokinin receptor type A (Homo sapiens, UniProt P32238)
T2 sequence (P32238 whole entry): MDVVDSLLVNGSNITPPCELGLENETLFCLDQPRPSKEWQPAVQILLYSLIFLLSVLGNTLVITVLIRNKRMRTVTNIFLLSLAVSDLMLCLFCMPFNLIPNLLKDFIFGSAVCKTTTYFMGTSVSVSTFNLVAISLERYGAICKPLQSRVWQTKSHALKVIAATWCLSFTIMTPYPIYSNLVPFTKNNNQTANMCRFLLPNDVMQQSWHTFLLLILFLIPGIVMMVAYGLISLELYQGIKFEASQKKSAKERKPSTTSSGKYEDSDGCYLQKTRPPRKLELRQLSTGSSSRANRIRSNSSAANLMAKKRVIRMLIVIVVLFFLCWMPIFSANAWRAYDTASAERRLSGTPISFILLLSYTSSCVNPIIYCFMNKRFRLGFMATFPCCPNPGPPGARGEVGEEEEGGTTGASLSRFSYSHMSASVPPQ

Cannabinoid receptor 1 = Cannabinoid receptor 1 (Homo sapiens, UniProt P21554); type: functional, cell-based
D(1A) dopamine receptor = D(1A) dopamine receptor (Homo sapiens, UniProt P21728); type: functional, cell-based
[3] = molecular target: Gamma-aminobutyric acid receptor subunit alpha-1 (Rattus norvegicus, UniProt P62813); type: functional
[4] = molecular target: Glutamate receptor ionotropic, NMDA 1 (Rattus norvegicus, UniProt P35439)
Motilin receptor = Motilin receptor (Homo sapiens, UniProt O43193)
[5] = molecular target: Delta-type opioid receptor (Homo sapiens, UniProt P41143)
[6] = molecular target: Kappa-type opioid receptor (Homo sapiens, UniProt P41145)
Progesterone receptor = molecular target: T3, Progesterone receptor (Homo sapiens, UniProt P06401); type: functional
T3 sequence (P06401 whole entry): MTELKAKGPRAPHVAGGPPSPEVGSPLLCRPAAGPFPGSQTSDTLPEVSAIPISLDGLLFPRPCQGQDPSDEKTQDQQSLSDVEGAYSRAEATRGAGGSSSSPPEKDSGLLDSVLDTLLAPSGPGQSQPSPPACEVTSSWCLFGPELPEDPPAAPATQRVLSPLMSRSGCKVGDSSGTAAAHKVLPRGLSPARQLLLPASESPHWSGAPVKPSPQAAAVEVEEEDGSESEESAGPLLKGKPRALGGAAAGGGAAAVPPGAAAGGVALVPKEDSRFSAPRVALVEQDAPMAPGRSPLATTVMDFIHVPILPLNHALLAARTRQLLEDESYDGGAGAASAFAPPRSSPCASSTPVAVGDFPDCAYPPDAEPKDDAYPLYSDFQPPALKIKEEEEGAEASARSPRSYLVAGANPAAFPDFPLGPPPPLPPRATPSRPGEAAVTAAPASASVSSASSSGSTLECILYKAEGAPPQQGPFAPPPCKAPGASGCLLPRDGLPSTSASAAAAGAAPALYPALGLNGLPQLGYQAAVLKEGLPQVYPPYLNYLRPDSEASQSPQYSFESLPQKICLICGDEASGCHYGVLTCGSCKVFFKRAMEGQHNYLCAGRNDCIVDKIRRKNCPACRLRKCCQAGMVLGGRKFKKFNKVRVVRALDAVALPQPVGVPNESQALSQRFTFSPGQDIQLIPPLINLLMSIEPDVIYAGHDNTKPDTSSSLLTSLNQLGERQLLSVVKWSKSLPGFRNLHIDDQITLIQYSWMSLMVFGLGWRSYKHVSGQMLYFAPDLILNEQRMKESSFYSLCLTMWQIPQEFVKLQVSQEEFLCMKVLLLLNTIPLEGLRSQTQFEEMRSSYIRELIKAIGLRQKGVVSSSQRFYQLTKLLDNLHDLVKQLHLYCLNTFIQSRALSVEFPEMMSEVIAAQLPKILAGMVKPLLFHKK

[7] = molecular target: T4, Prostaglandin G/H synthase 1 (Rattus norvegicus, UniProt Q63921); type: functional
T4 sequence (Q63921 whole entry): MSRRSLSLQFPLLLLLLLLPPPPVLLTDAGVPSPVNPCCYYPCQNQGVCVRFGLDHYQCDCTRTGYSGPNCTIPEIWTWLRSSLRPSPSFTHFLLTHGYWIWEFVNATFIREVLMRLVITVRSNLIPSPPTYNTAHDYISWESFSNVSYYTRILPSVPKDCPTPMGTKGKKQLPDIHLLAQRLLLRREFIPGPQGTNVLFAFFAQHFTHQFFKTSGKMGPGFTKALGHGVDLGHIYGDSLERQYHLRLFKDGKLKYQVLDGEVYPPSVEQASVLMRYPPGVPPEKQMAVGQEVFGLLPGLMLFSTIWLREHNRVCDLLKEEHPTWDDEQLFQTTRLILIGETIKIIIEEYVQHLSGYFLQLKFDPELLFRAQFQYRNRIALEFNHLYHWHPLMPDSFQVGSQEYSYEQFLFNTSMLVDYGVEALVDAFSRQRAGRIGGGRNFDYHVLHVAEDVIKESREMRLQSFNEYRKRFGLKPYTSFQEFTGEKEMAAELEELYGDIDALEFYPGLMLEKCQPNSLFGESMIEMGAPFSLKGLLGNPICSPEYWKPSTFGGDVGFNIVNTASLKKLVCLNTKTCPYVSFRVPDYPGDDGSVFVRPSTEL

[8] = molecular target: Sodium-dependent noradrenaline transporter (Homo sapiens, UniProt P23975)
Note: assay procedure not described here.

Chain of Kappa-type opioid receptor (P41145 whole entry): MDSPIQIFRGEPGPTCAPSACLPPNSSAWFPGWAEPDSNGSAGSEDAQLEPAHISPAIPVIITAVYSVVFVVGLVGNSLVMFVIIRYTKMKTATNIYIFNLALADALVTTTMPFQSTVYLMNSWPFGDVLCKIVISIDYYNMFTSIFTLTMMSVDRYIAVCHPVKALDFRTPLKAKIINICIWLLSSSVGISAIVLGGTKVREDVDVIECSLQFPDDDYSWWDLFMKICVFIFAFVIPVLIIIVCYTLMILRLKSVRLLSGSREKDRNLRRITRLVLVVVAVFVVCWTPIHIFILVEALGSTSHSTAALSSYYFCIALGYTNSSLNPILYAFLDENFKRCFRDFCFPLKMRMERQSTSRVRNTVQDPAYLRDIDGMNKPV
Chain of Gamma-aminobutyric acid receptor subunit alpha-1 (P62813 whole entry): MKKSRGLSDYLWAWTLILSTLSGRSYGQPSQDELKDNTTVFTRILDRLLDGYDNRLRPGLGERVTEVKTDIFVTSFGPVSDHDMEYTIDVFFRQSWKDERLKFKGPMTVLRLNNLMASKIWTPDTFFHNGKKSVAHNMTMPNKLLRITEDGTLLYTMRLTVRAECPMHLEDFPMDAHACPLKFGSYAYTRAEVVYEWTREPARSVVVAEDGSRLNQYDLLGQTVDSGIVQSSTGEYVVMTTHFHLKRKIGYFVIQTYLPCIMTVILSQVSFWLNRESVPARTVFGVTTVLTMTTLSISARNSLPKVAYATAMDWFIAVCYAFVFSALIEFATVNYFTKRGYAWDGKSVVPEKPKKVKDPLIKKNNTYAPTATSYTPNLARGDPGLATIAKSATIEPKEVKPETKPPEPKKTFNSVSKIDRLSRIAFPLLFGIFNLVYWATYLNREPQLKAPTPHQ
Chain of Sodium-dependent noradrenaline transporter (P23975 whole entry): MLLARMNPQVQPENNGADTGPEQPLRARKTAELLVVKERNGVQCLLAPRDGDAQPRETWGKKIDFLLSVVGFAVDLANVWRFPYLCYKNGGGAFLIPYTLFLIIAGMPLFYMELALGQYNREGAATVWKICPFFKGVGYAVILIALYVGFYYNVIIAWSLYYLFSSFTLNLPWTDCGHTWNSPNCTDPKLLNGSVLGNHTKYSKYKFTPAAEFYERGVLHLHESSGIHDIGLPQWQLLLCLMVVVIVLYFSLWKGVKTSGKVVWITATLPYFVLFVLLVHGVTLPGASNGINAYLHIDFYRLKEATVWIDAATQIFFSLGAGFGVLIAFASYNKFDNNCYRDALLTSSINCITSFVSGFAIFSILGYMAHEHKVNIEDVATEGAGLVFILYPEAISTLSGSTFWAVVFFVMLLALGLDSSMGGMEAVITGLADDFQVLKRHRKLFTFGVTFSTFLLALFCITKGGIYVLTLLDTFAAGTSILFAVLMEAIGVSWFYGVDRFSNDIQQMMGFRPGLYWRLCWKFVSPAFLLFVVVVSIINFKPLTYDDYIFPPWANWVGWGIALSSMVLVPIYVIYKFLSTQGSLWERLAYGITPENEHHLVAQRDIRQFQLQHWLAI
Chain of D(1A) dopamine receptor (P21728 whole entry): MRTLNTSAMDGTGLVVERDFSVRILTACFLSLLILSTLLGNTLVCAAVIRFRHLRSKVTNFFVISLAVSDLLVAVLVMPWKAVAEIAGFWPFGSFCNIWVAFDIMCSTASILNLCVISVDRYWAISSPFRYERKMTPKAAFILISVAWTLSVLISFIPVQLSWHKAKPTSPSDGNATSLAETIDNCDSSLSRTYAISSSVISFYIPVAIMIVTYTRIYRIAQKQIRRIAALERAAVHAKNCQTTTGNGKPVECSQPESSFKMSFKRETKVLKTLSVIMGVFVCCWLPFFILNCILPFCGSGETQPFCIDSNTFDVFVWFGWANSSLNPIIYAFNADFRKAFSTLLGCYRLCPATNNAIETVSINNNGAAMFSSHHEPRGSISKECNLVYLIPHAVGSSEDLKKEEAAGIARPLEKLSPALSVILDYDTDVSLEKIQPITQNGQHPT
Chain of Delta-type opioid receptor (P41143 whole entry): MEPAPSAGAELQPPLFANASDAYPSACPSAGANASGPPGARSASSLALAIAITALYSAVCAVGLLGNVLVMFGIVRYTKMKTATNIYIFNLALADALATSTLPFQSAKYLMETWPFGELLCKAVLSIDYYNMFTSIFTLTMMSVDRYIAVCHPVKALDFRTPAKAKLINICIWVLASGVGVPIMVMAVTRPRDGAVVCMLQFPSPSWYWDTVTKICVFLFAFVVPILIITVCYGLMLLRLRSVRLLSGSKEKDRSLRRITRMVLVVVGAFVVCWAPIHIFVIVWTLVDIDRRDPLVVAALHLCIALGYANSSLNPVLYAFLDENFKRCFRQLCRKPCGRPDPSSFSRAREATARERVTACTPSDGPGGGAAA
Chain of Cannabinoid receptor 1 (P21554 whole entry): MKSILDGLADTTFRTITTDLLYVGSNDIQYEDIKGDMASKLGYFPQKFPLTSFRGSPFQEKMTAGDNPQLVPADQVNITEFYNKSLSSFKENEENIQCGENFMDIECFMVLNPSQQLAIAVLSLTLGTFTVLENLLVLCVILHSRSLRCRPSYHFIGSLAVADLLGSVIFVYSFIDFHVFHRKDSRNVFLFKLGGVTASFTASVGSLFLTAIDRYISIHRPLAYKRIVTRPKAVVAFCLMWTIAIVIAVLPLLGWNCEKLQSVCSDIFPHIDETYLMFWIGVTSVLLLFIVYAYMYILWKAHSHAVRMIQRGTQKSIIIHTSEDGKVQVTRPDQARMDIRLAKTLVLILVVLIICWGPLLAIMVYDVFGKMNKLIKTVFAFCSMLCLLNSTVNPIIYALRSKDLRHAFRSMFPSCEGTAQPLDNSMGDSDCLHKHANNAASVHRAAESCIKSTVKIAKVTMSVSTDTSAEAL
Chain of Motilin receptor (O43193 whole entry): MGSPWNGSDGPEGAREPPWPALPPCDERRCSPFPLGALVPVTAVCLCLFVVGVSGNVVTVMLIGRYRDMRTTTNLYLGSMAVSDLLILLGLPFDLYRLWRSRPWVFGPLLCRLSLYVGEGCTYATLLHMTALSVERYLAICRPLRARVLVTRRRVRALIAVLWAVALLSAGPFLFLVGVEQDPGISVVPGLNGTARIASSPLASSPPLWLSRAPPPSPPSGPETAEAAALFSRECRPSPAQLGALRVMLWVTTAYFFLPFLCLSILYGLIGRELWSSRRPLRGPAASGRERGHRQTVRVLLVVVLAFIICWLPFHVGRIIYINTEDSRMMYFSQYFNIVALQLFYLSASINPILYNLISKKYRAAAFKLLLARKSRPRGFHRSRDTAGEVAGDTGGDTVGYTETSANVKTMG

## CC(C)(C)NCC(O)COc1cccc2c1CCC(=O)N2 (stereo unspecified) [CARTEOLOL]
[1]
  AC50: > 10 µM
[2]
  AC50: > 10 µM
Cannabinoid receptor 1
  AC50: > 30 µM
D(1A) dopamine receptor
  AC50: > 10 µM
[3]
  AC50: > 10 µM
[4]
  AC50: > 10 µM
Motilin receptor
  AC50: > 10 µM
[5]
  AC50: > 30 µM
[6]
  AC50: 11.6 µM
Progesterone receptor
  AC50: > 10 µM
[7]
  AC50: > 10 µM
[8]
  AC50: > 10 µM

## C[C@@H]1O[C@@H](O[C@@H]2C=C3CC[C@@H]4[C@H](CC[C@]5(C)[C@@H](c6ccc(=O)oc6)CC[C@]45O)[C@@]3(C)CC2)[C@H](O)[C@H](O)[C@H]1O [PROSCILLARIDIN]
[1]
  AC50: > 30 µM
[2]
  AC50: > 30 µM
Cannabinoid receptor 1
  AC50: > 30 µM
D(1A) dopamine receptor
  AC50: > 30 µM
[3]
  AC50: > 30 µM
[4]
  AC50: > 30 µM
Motilin receptor
  AC50: > 30 µM
[5]
  AC50: > 30 µM
[6]
  AC50: > 30 µM
Progesterone receptor
  AC50: > 30 µM
[7]
  AC50: 13 µM
[8]
  AC50: > 30 µM

## NC(=O)CN1CC(O)CC1=O (stereo unspecified) [OXIRACETAM]
[1]
  AC50: > 30 µM
[2]
  AC50: > 30 µM
Cannabinoid receptor 1
  AC50: > 30 µM
D(1A) dopamine receptor
  AC50: > 30 µM
[3]
  AC50: > 30 µM
[4]
  AC50: > 30 µM
Motilin receptor
  AC50: > 30 µM
[5]
  AC50: > 30 µM
[6]
  AC50: > 30 µM
Progesterone receptor
  AC50: > 30 µM
[7]
  AC50: > 30 µM
[8]
  AC50: > 30 µM
